# Test results reported in US20180258459A1, “NITRATE BIOSENSOR” (priority 2015, published 2018).
# System: NarL associated promoter
# Experiment: transfer of natural NarL with its associated promoter into B. subtilis
# Type: cell-based
# Conditions: natural NarL protein with its associated promoter, previous attempts
substance,measurement,value
NarL: response regulator (RR) protein NarL from E. coli (UniProt P0AF28),functional transcription in B. subtilis,failed to result in functional transcription
